These results are taken from patent US20200038410A1, “METHODS FOR TREATING NEUROPATHY” (Loyola University Chicago, priority 2018, published 2020).

Assay [1] concerns Nav1.8 expressing neurons of the DRG. Kind of assay: ER stress marker mRNA in Nav1.8 expressing sensory neurons (RiboTag IP) of DRG organotypic cultures treated with palmitate. It is filed as cell-based, mice. To be noted: Nav1.8 sensory neuron specific mRNA from DRG organotypic cultures, FIG. 3F. The source says:
FIGS. 3A through 3F include charts and images representing that an LXR agonist decreased lipid-induced ER stress in DRG neurons expressing Nav1.8. […] FIG. 3B represents the generation of tissue specific RiboTag mouse. Sensory neuron specific (Nav1.8) Cre mice were utilized to generate Ribotag-Nav1.8-Cre mice. FIG. 3C represents data from western blots on whole DRG of RiboTag-Nav1.8-Cre mice after immunoprecipitation for HA. FIG. 3D represents data from immunohistochemistry on DRG slices for HA in sensory neurons (in green—HA, blue—DAPI/nuclei). FIG. 3E represents actin normalized mRNA levels of positive (Nav1.8) and negative (GFAP, PV) markers of Nav1.8 expressing neurons in whole DRG (WT), input, and IP samples. FIG. 3F represents actin normalized mRNA levels of ER stress markers, in sensory neurons treated with LXR agonist and palmitate. Sensory neuron specific mRNA was isolated by immunoprecipitation from whole DRG organotypic cultures treated with agonist and palmitate (n=3 individual experiments). (Values are Mean±S.E.M, with vehicle group defined as 100%; *p<0.05 with vehicle; **p<0.05 with vehicle+palmitate). […] The mRNA levels of ER stress markers undergoing translation were analyzed in Nav1.8 expressing neurons. […]

The test system of assay [2] is 80-week old mice presenting signs of neuropathy. Put plainly: Intra epidermal nerve fibers density in paw skin of 80-week old mice with neuropathy. It is filed as in vivo. The settings on record: gavaged twice a week for three months, skin of paws, FIG. 6. The source says: FIG. 6 is a bar chart evidencing that treatments with a mixed solution of butyrate and an LXR agonist (GW3965) trigger an enhanced regeneration mechanism that improves neuropathy.
In an additional investigation, 80-week old mice presenting signs of neuropathy (loss of fibers in the skin) were gavaged twice a week during a three-month period with a GW3965 solution or a mixed solution of GW3965 and butyrate using the indicated concentrations reported in FIG. 6. After three months, the mice were euthanized and the intra epidermal nerve fibers density was counted in the skin of their paws.

The subject of the next assay is WD-fed mice. Put plainly: Western diet-induced allodynia, von Frey test. It is filed as in vivo. To be noted: 25 mg/kg i.p. twice a week for three weeks after eight weeks of WD, compared to WD vehicle, FIG. 2A. The source says: End point levels of serum triglycerides (FIG. 2B), cholesterol (FIG. 2C), in mice fed NC or WD treated with agonist. FIG. 2D represents mRNA levels of ER stress markers normalized to 18S in DRG of NC or WD-fed mice treated with LXR agonist. (n=4 mice/group; all values are Mean±S.E.M; for mRNA relative levels were plotted with NC-vehicle group defined as 100%; *p<0.05 with NC-Veh; **p<0.05 with WD-Veh). The mechanical hypersensitivity observed early in peripheral neuropathy is believed to be associated with metabolic syndrome and independent of diabetes. […] The von Frey test was performed and measured phasic response frequency to calculate the 50% threshold in WD and NC-fed mice. […] The above data linking LXR and ER stress in DRG led the inventors to assess whether activation of LXRs could change the WD-induced allodynia. WT mice were fed either NC or WD for a total of twelve weeks after weaning, while assessing the onset and progression of allodynia. […] Weight-matched mice on either diet were treated for three weeks with either GW3965 (25 mg/kg body weight; twice a week by i.p.) or vehicle after eight weeks of WD diet (twelve weeks of age). […] Sensitivity of mice to innocuous stimuli was evaluated over the duration of GW3965 treatment. […]

For assay [3], the system named is DRG primary neuronal cultures. Kind of assay: Palmitate-induced ER stress markers and lpcat3 mRNA in DRG primary neuronal cultures. It is filed as cell-based, mice. The settings on record: DRG neurons stimulated by LXR agonist; FIG. 1G. The source says: (§1) FIG. 1A is a chart representing distribution of nuclear receptor mRNA in the whole DRG. Normalized mRNA expression levels were defined as Absent if the Ct value was greater than 40, Low if the level was […] arbitrary units, Moderate if the level was between 0.025 and 0.25, and High if the level was greater than 0.25 arbitrary units. […] FIGS. 1D and 1F represent data of protein levels of CHOP, an ER stress marker, in DRG of mice fed western diet (WD) compared to normal chow (NC) (FIG. 1D, n=10 DRG/group), and in ex vivo organotypic whole DRG cultures treated with palmitate and LXR agonist (FIG. 1F, n=individual experiments in triplicate). FIGS. 1C, 1E, and 1G represent data of mRNA levels of ER stress markers using 18S to normalize, in DRG of WD and NC fed mice (FIG. 1C, n=4 mice/group), in organotypic whole DRG cultures (FIG. 1E), and in primary neuronal culture of DRG neurons treated with LXR agonist and palmitate (FIG. 1G, n=5 individual experiments). (All values are Mean±S.E.M, with vehicle group defined as 100%; *p<0.05 with vehicle; **p<0.05 with vehicle+palmitate).
Previous research has shown that LXRs could be involved in the regulation of organelles/membrane phospholipid composition by regulating the expression of LPCAT3 (lysophospholipid acyltransferase).

The subject of another assay is organotypic DRG cultures. Kind of assay: Palmitate-induced ER stress markers (mRNA) in organotypic whole DRG cultures. It is filed as cell-based, mice. The settings on record: palmitate treated organotypic DRG cultures, compared to vehicle; FIG. 1E.
From the text: as §1
ER stress has been identified as a potential culprit underlying type 1 and type 2 diabetes. Increased expression of the ER stress marker CHOP was reported in metabolic tissues of diabetic mice, while targeted disruption of CHOP gene delayed the onset of diabetes. […]

For a further assay, the system named is DRG of WD-fed mice. Kind of assay: ER stress marker (UPR target gene) mRNA in DRG of WD-fed mice treated with agonist. It is filed as in vivo. The settings on record: 25 mg/kg i.p. twice a week for three weeks, FIG. 2D. The source says:
End point levels of serum triglycerides (FIG. 2B), cholesterol (FIG. 2C), in mice fed NC or WD treated with agonist. FIG. 2D represents mRNA levels of ER stress markers normalized to 18S in DRG of NC or WD-fed mice treated with LXR agonist. (n=4 mice/group; all values are Mean±S.E.M; for mRNA relative levels were plotted with NC-vehicle group defined as 100%; *p<0.05 with NC-Veh; **p<0.05 with WD-Veh). The above data linking LXR and ER stress in DRG led the inventors to assess whether activation of LXRs could change the WD-induced allodynia. WT mice were fed either NC or WD for a total of twelve weeks after weaning, while assessing the onset and progression of allodynia. […] Weight-matched mice on either diet were treated for three weeks with either GW3965 (25 mg/kg body weight; twice a week by i.p.) or vehicle after eight weeks of WD diet (twelve weeks of age). As activation of LXRs elevated triglyceride levels in liver and plasma, the dosage of LXR agonist was adjusted to minimize the increase of triglyceride and cholesterol (FIGS. 2B and 2C). Sensitivity of mice to innocuous stimuli was evaluated over the duration of GW3965 treatment. […] Then, the expression of UPR target genes in DRG of NC- or WD-fed mice treated with vehicle or GW3965 was compared.

Assay [4] has as its system LXRs in organotypic cultures of DRG. Kind of assay: LXR target gene expression (ABCA1) in organotypic cultures of DRG. It is filed as cell-based, mice. To be noted: organotypic cultures of DRG stimulated with GW3965; FIG. 1B.
From the text: as §1, with “vehicle+palmitate). […]” for “vehicle+palmitate).”

Consider `O=C(O)Cc1cccc(OCCCN(Cc2cccc(C(F)(F)F)c2Cl)CC(c2ccccc2)c2ccccc2)c1` [GW3965], for which, in assay [1], the “CHOP, ATF4, and sXBP1 mRNA levels increased by palmitate” value was “blunted”. Also, the “number of nerves (intra epidermal nerve fibers density)” value in assay [2] was “increased the number the nerves”. Further, in the assay with WD-fed mice, the “progression of WD-induced allodynia (von Frey sensitivity to innocuous stimuli)” value is listed as “delay in the progression of WD-induced allodynia”. For the same molecule, in assay [3], the “lpcat3 mRNA” value was “significant increase”. For the same molecule, the “mRNA levels of ER stress markers” value in the assay on organotypic DRG cultures was “decreased”. Moreover, the “expression of ER stress markers in DRG” value in the assay with DRG of WD-fed mice is “decreased expression of ER stress markers”. For the same molecule, the “LXR canonical gene expression, ATP-binding cassette transporter (ABCA1)” value in assay [4] was “significant increase”.
